Values after ≈ are worked out from the molar mass of the structure shown. *1 amine or outer side, *2 acyl side, *3 side chain or, on linkers, in order; H or OH if unused. Where a SMILES comes first, the peptide text is derived from it. [ ]: non-standard residue; d: D form. The star is where a group is joined. Ava(2S,3R-(OH)2,4S-OMe) = CO[C@@H](CN[*:1])[C@H](O)[C@H](O)C(=O)[*:2]; dHis(βS-OH,π-Me) = Cn1cncc1[C@@H](O)[C@@H](N)C(=O)O; Butanoyl(2R-OH,3S-OH) = C[C@H](O)[C@@H](O)C(=O)*; Val(3-OH) = CC(C)(O)[C@H](N)C(=O)O; NMeF = CN[C@@H](Cc1ccccc1)C(=O)O
Tests used:
[1] = test system: Escherichia coli MG1655 WT; format: cell-based; details: strain MG1655 WT; CAMHB, CLSI/EUCAST broth microdilution, 5x10^5 CFU mL-1, 20-22 h, duplicates
Description: (§1) 5. Determination of the minimal inhibitory concentration (MIC) in vitro The MIC of Corramycin was evaluated following the Clinical & Laboratory Standard Institute (CLSI; https://clsi.org) and EUCAST (https://eucast.org) guidelines. First, inoculi of the bacterial test strains were prepared by culturing isolated colonies in cation-adjusted Müller Hinton broth (CAMHB; 2 g L-1 beef infusion solids, 1.5 g L-1 starch, 17.5 g L-1 casein hydrolysates, final pH 7.4) at 37 °C and 180 rpm for 18 h. Next, Corramycin, which was dissolved in DMSO, was transferred into the first row of a 96-well plate to reach an end concentration of 64 µg mL-1 (in 100 µL total volume). A 1:1 serial dilution in cation-adjusted Mueller Hinton broth (CAMHB) of the test compound was done from the top row to the bottom row of the 96-well plate to reach an end concentration of 0.125 µg mL-1 in the bottom row. Afterwards, the respective test strains were transferred into the wells, reaching a total volume of 100 µL and 5x10^5 colony-forming units (CFU) mL-1. After a 20 to 22 h of incubation, the optical density was evaluated on a microplate reader and the MIC endpoint was determined as the lowest concentration of antibiotic at which there was no visible growth observed. Each MIC experiment was performed in duplicates. Table S 4 depicts the MIC values of Corramycin against all bacterial strains tested in this study.
(§2) Table S 4. MIC values of Corramycin against all bacterial strains tested in this study. […]

[2] = test system: Escherichia coli 1705863; format: cell-based; details: strain 1705863; CAMHB, CLSI/EUCAST broth microdilution, 5x10^5 CFU mL-1, 20-22 h, duplicates
Description: as §1, §2

[3] = test system: Escherichia coli DSM46345; format: cell-based; details: strain DSM46345; CAMHB, CLSI/EUCAST broth microdilution, 5x10^5 CFU mL-1, 20-22 h, duplicates
Description: as §1, §2

[4] = test system: Escherichia coli NCTC13441; format: cell-based; details: strain NCTC13441; CAMHB, CLSI/EUCAST broth microdilution, 5x10^5 CFU mL-1, 20-22 h, duplicates
Description: as §1, §2

[5] = test system: Escherichia coli NCTC10418; format: cell-based; details: strain NCTC10418; CAMHB, CLSI/EUCAST broth microdilution, 5x10^5 CFU mL-1, 20-22 h, duplicates
Description: as §1, §2

[6] = test system: Enterobacter cloacae 17059482; format: cell-based; details: strain 17059482; CAMHB, CLSI/EUCAST broth microdilution, 5x10^5 CFU mL-1, 20-22 h, duplicates
Description: as §1, §2

[7] = test system: Enterobacter cloacae DSM46348; format: cell-based; details: strain DSM46348; CAMHB, CLSI/EUCAST broth microdilution, 5x10^5 CFU mL-1, 20-22 h, duplicates
Description: as §1, §2

[8] = test system: Enterococcus faecium A6349; format: cell-based; details: strain A6349; CAMHB, CLSI/EUCAST broth microdilution, 5x10^5 CFU mL-1, 20-22 h, duplicates
Description: as §1, §2

[9] = test system: Escherichia coli ATCC35218; format: cell-based; details: strain ATCC35218; CAMHB, CLSI/EUCAST broth microdilution, 5x10^5 CFU mL-1, 20-22 h, duplicates
Description: as §1, §2

[10] = format: in vivo; details: single i.v. bolus 30 mg kg-1, male Swiss mice, LC/MS-MS, three animals per sampling time
Description: However, despite this rapid elimination, the antibacterial effect was strong enough in the animals to achieve survival after a single day of treatment.
Figure S 71. A) Blood bacteremia experiment. E. coli ATCC35218 CFU load after treatment of infected mice with 10 mg kg-1, 20 mg kg-1 or 30 mg kg-1 Corramycin. B) Survival of the E. coli ATCC35218 infected mice in %, after one day of treatment with either 0.9 % NaCl (negative control), Tienam (15 mg kg-1 Imipenem; positive control) or Corramycin in three different doses (10 mg kg-1, 20 mg kg-1 or 30 mg kg-1).
14.2 Corramycin elimination experiment
Native Corramycin systemic exposure was determined following a single intravenous (30 mg kg-1 expressed as active compound) bolus administration to male Swiss mice. […]
Lung, brain, kidney, heart and liver were collected at each sampling time (5 min, 0.5, 1, 2, 4, 6, 8 and 24 h post administration) pooled per sampling time, weighed and frozen at -20 °C until analysis. Native Corramycin was quantified in the plasma and tissues using an exploratory LC/MS-MS assay method in Early Bioanalysis Group of Toulouse (Montpellier DSAR Operational Center), France. […] The pharmacokinetic parameters were calculated from the arithmetic mean of the plasma concentrations or the tissue concentrations (lung, brain, kidney, heart and liver) using the program WinNonLin 5.2, non-compartmental models 200 and 201. […]

SMILES: CO[C@@H](CNC(=O)[C@H](NC(=O)[C@H](O)[C@H](C)O)[C@H](O)c1cncn1C)[C@H](O)[C@H](O)C(=O)N(C)[C@@H](Cc1ccccc1)C(=O)NCC(=O)N[C@H](C(=O)N[C@@H](CO)C(=O)N[C@H](C(=O)N[C@@H](CC(C)C)C(=O)N[C@@H](CO)C(=O)O)C(C)(C)O)C(C)(C)O [Corramycin] ({Butanoyl(2R-OH,3S-OH)}-[dHis(βS-OH,π-Me)][Ava(2S,3R-(OH)2,4S-OMe)][NMeF]G[Val(3-OH)]S[Val(3-OH)]LS-OH)
- MIC [1]: 8 to 16 µg/mL
- MIC [2]: 8 µg/mL (≈ 6.76 µM)
- MIC [3]: 32 µg/mL (≈ 27 µM)
- MIC [4]: 4 µg/mL (≈ 3.38 µM)
- MIC [5]: 8 µg/mL (≈ 6.76 µM)
- MIC [6]: >64 µg/mL
- MIC [7]: 32 µg/mL (≈ 27 µM)
- MIC [8]: >64 µg/mL
- MIC [9]: 1 to 4 µg/mL
- Time of plasma concentration above the MIC after i.v. administration [10]: less than 30 minutes

— paper PMC10099666, “Structure Elucidation, Total Synthesis, Antibacterial In Vivo Efficacy and Biosynthesis Proposal of Myxobacterial Corramycin” (Angewandte Chemie (International Ed. in English), 2022)
